Results published in US20240409585A1, “MACROCYCLIC IMMUNOMODULATORS” (priority 2021, published 2024).
Bridge positions count the residues as written; N and C are the ends. Square brackets hold non-standard residues; d marks the D form. Peptide text beside a SMILES is read from it. * marks the point of attachment. ξ: configuration not given here. dPhe(3-NO2) = N[C@H](Cc1cccc([N+](=O)[O-])c1)C(=O)O; Ala(morpholin-4-yl) = N[C@@H](CN1CCOCC1)C(=O)O; Phe(4-COOH) = N[C@@H](Cc1ccc(C(=O)O)cc1)C(=O)O; Bip = N[C@@H](Cc1ccc(-c2ccccc2)cc1)C(=O)O; Phe(3-Br) = N[C@@H](Cc1cccc(Br)c1)C(=O)O; Phe(3-Cl) = N[C@@H](Cc1cccc(Cl)c1)C(=O)O; Phe(3-Me) = Cc1cccc(C[C@H](N)C(=O)O)c1; Val(3-OH) = CC(C)(O)[C@H](N)C(=O)O; 4Pal = N[C@@H](Cc1ccncc1)C(=O)O; Cha = N[C@@H](CC1CCCCC1)C(=O)O; Cit = NC(=O)NCCC[C@H](N)C(=O)O; Ile(3ξ) = CCC(C)[C@H](N)C(=O)O; Thr(3ξ) = CC(O)[C@H](N)C(=O)O; Carboxymethyl = O=C(O)C*; NMeA = CN[C@@H](C)C(=O)O; Orn = NCCC[C@H](N)C(=O)O; Pra = C#CC[C@H](N)C(=O)O; Dab = NCC[C@H](N)C(=O)O; Abu = CC[C@H](N)C(=O)O; Dap = NC[C@H](N)C(=O)O

The compounds below were run against T1, PE-labeled human PD-L1-Ig binding to Jurkat cell line over-expressing human PD-1 (Jurkat-PD-1) (Homo sapiens, UniProt Q15116) (assay: Jurkat-PD-1 Cell Binding High-Content Screening Assay (CBA): Method 1). Settings: Jurkat-hPD-1 cells, PE-labeled PD-L1-Ig 20 nM final; read-out: Jurkat HPDL1 PD1 IC50 (uM) (Method 1).
T1 construct: expressed in transfected cells; host or cells: Jurkat
T1 sequence (Q15116 25-288): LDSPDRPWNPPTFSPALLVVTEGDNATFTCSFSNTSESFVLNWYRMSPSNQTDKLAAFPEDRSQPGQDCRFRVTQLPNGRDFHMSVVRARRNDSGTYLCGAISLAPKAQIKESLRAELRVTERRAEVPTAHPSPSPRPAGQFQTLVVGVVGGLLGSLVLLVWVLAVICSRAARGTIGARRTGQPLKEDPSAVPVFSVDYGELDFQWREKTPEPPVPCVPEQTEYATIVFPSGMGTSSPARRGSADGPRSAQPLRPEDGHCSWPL

IC50 [µM] | Structure (SMILES)
0.16 | Cc1cccc(C[C@@H]2NC(=O)[C@H](CC(=O)O)NC(=O)[C@H](Cc3ccc(OCC(=O)O)cc3)NC(=O)[C@H]([C@@H](C)O)NC(=O)CSC[C@@H](C(N)=O)NC(=O)[C@H](CCC(N)=O)NC(=O)[C@H](C(C)C)NC(=O)[C@H](CC3CCCCC3)NC(=O)[C@H](CC(N)=O)NC(=O)[C@@H](CC(C)C)NC(=O)[C@H](C)N(C)C(=O)[C@H](Cc3ccc(OCC(=O)O)cc3)NC(=O)[C@H](Cc3ccc(-c4ccccc4)cc3)NC(=O)[C@H](Cc3ccc(OCC(=O)O)cc3)NC2=O)c1 [Compound 1677] ({CH2CO}-TY(Carboxymethyl)D[Phe(3-Me)]Y(Carboxymethyl)[Bip]Y(Carboxymethyl)[NMeA][dL]N[Cha]VQC-NH2; thioether N-14)
0.21 | Cc1cccc(C[C@@H]2NC(=O)[C@H](CC(=O)O)NC(=O)[C@H](Cc3ccc(OCC(=O)O)cc3)NC(=O)[C@H](CN3CCOCC3)NC(=O)CSC[C@@H](C(=O)N[C@@H](CCN)C(N)=O)NC(=O)[C@H](CCCN)NC(=O)[C@H](C(C)C)NC(=O)[C@H](Cc3cccc(Br)c3)NC(=O)[C@H](CCN)NC(=O)[C@@H](CC(C)C)NC(=O)[C@H](C)N(C)C(=O)[C@H](CCC(N)=O)NC(=O)[C@H](Cc3ccc(-c4ccccc4)cc3)NC(=O)[C@H](Cc3ccc(C(=O)O)cc3)NC2=O)c1 [Example 2291] ({CH2CO}-[Ala(morpholin-4-yl)]Y(Carboxymethyl)D[Phe(3-Me)][Phe(4-COOH)][Bip]Q[NMeA][dL][Dab][Phe(3-Br)]V[Orn]C[Dab]-NH2; thioether N-14)
0.01 | CC(C)C[C@@H]1NC(=O)[C@H](Cc2c[nH]c3ccccc23)NC(=O)[C@H](CC(=O)O)NC(=O)[C@H](Cc2ccncc2)NC(=O)[C@H](Cc2ccc(OCC(=O)O)cc2)NC(=O)CSC[C@@H](C(=O)N[C@@H](CCN)C(N)=O)NC(=O)[C@H](CO)NC(=O)[C@H](C(C)C)NC(=O)[C@H](CC2CCCCC2)NC(=O)[C@H](CCN)NC(=O)[C@@H](CC(C)C)NC(=O)[C@H](C)N(C)C(=O)[C@H](C(C)C)NC(=O)[C@H](Cc2ccc(-c3ccccc3)cc2)NC1=O [Compound 1905] ({CH2CO}-Y(Carboxymethyl)[4Pal]DWL[Bip]V[NMeA][dL][Dab][Cha]VSC[Dab]-NH2; thioether N-14)
0.93 | CC[C@@H]1NC(=O)[C@H](CCCNC(=N)N)NC(=O)[C@@H](CC(C)C)NC(=O)[C@H](C)N(C)C(=O)[C@H](CCCNC(=N)N)NC(=O)[C@H](Cc2ccc(-c3ccccc3)cc2)NC(=O)[C@H](C(C)C)NC(=O)[C@H](Cc2c[nH]c3ccccc23)NC(=O)[C@H](CC(=O)O)NC(=O)[C@H](Cc2ccc(O)cc2)NC(=O)[C@H](Cc2ccccc2)NC(=O)CSC[C@@H](C(=O)N[C@@H](C)C(N)=O)NC(=O)[C@H]([C@@H](C)O)NC(=O)[C@H](C(C)C)NC1=O [Compound 1114] ({CH2CO}-FYDWV[Bip]R[NMeA][dL]R[Abu]VTCA-NH2; thioether N-14)
0.02 | CC(=O)NCCCC[C@@H]1NC(=O)[C@H](Cc2ccc(-c3ccccc3)cc2)NC(=O)[C@H](Cc2ccc(O)cc2)NC(=O)[C@H](Cc2cccc(C)c2)NC(=O)[C@H](CC(=O)O)NC(=O)[C@H](Cc2ccc(OCC(=O)O)cc2)NC(=O)[C@H](C(C)O)NC(=O)CSC[C@@H](C(=O)N[C@@H](CO)C(N)=O)NC(=O)[C@H](C(C)O)NC(=O)[C@H](C(C)C)NC(=O)[C@H](CC2CCCCC2)NC(=O)[C@H](CCN)NC(=O)[C@@H](CC(C)C)NC(=O)[C@H](C)N(C)C1=O (stereo partly drawn) [Compound 2119] ({CH2CO}-[Thr(3ξ)]Y(Carboxymethyl)D[Phe(3-Me)]Y[Bip]K(Ac)[NMeA][dL][Dab][Cha]V[Thr(3ξ)]CS-NH2; thioether N-14)
0.05 | CCC(C)[C@@H]1NC(=O)[C@H](Cc2ccc(-c3ccccc3)cc2)NC(=O)[C@H](C(C)C)NC(=O)[C@H](Cc2cccc(C)c2)NC(=O)[C@H](CC(=O)O)NC(=O)[C@H](Cc2ccc(C(=O)O)cc2)NC(=O)[C@H](Cc2ccncc2)NC(=O)CSC[C@@H](C(N)=O)NC(=O)[C@H](CCCN)NC(=O)[C@H](C(C)C)NC(=O)[C@H](CC(C)C)NC(=O)[C@H](CCN)NC(=O)[C@@H](CC(C)C)NC(=O)[C@H](C)N(C)C1=O (stereo partly drawn) [Compound 1900] ({CH2CO}-[4Pal][Phe(4-COOH)]D[Phe(3-Me)]V[Bip][Ile(3ξ)][NMeA][dL][Dab]LV[Orn]C-NH2; thioether N-14)
0.19 | CC(C)C[C@@H]1NC(=O)[C@H](Cc2c[nH]c3ccccc23)NC(=O)[C@H](CC(=O)O)NC(=O)[C@H](Cc2ccc(C(=O)O)cc2)NC(=O)[C@H](Cc2ccc(OCC(=O)O)cc2)NC(=O)CSC[C@@H](C(=O)NCC(N)=O)NC[C@H](CO)NC(=O)[C@H](C(C)C)NC(=O)[C@H](CC2CCCCC2)NC(=O)[C@H](CC(N)=O)NC(=O)[C@@H](CC(C)C)NC(=O)[C@H](C)N(C)C(=O)[C@H](C(C)C)NC(=O)[C@H](Cc2ccc(-c3ccccc3)cc2)NC1=O [Compound 1623]
0.12 | Cc1cccc(C[C@@H]2NC(=O)[C@H](CC(=O)O)NC(=O)[C@H](Cc3ccc(OCC(=O)O)cc3)NC(=O)[C@H]([C@@H](C)O)NC(=O)CSC[C@@H](C(N)=O)NC(=O)[C@H](CC(N)=O)NC(=O)[C@H](C(C)C)NC(=O)[C@H](CC3CCCCC3)NC(=O)[C@H](CC(N)=O)NC(=O)[C@@H](CC(C)C)NC(=O)[C@H](C)N(C)C(=O)[C@H](Cc3ccc(OCC(=O)O)cc3)NC(=O)[C@H](Cc3ccc(-c4ccccc4)cc3)NC(=O)[C@H](Cc3ccc(OCC(=O)O)cc3)NC2=O)c1 [Compound 1675] ({CH2CO}-TY(Carboxymethyl)D[Phe(3-Me)]Y(Carboxymethyl)[Bip]Y(Carboxymethyl)[NMeA][dL]N[Cha]VNC-NH2; thioether N-14)
0.11 | CC(C)C[C@@H]1NC(=O)[C@H](CCCNC(=N)N)NC(=O)[C@@H](Cc2cccc([N+](=O)[O-])c2)NC(=O)[C@H](C)N(C)C(=O)[C@H](CCCNC(=N)N)NC(=O)[C@H](Cc2ccc(-c3ccccc3)cc2)NC(=O)[C@H](C(C)C)NC(=O)[C@H](Cc2c[nH]c3ccccc23)NC(=O)[C@H](CC(=O)O)NC(=O)[C@H](Cc2ccc(O)cc2)NC(=O)[C@H](Cc2ccccc2)NC(=O)CSC[C@@H](C(=O)N[C@@H](C)C(N)=O)NC(=O)[C@H]([C@@H](C)O)NC(=O)[C@H](C(C)C)NC1=O [Compound 1074] ({CH2CO}-FYDWV[Bip]R[NMeA][dPhe(3-NO2)]RLVTCA-NH2; thioether N-14)
0.04 | CC(C)C[C@@H]1NC(=O)[C@H](CCN)NC(=O)[C@@H](CC(C)C)NC(=O)[C@H](C)N(C)C(=O)[C@H](CCCNC(=N)N)NC(=O)[C@H](Cc2ccc(-c3ccccc3)cc2)NC(=O)[C@H](C(C)C)NC(=O)[C@H](Cc2c[nH]c3ccccc23)NC(=O)[C@H](CC(=O)O)NC(=O)[C@H](Cc2ccc(O)cc2)NC(=O)[C@H](Cc2ccccc2)NC(=O)CSC[C@@H](C(=O)N[C@@H](C)C(N)=O)NC(=O)[C@H]([C@@H](C)O)NC(=O)[C@H](C(C)C)NC1=O [Compound 1052] ({CH2CO}-FYDWV[Bip]R[NMeA][dL][Dab]LVTCA-NH2; thioether N-14)
0.06 | CC(C)C[C@@H]1NC(=O)[C@H](CCCN)NC(=O)[C@@H](CC(C)C)NC(=O)[C@H](C)N(C)C(=O)[C@H](CCCNC(N)=O)NC(=O)[C@H](Cc2ccc(-c3ccccc3)cc2)NC(=O)[C@H](C(C)C)NC(=O)[C@H](Cc2c[nH]c3ccccc23)NC(=O)[C@H](CC(=O)O)NC(=O)[C@H](Cc2ccc(O)cc2)NC(=O)[C@H](CC(N)=O)NC(=O)CSC[C@@H](C(=O)NCC(N)=O)NC(=O)[C@H]([C@@H](C)O)NC(=O)[C@H](C(C)C)NC1=O [Compound 1235] ({CH2CO}-NYDWV[Bip][Cit][NMeA][dL][Orn]LVTCG-NH2; thioether N-14)
0.01 | Cc1cccc(C[C@@H]2NC(=O)[C@H](CC(=O)O)NC(=O)[C@H](Cc3ccc(C(=O)O)cc3)NC(=O)[C@H](Cc3ccncc3)NC(=O)CSC[C@@H](C(=O)N[C@@H](C)C(N)=O)NC(=O)[C@H]([C@@H](C)O)NC(=O)[C@H](C(C)C)NC(=O)[C@H](CC(C)C)NC(=O)[C@H](CCN)NC(=O)[C@@H](CC(C)C)NC(=O)[C@H](C)N(C)C(=O)[C@H](C(C)C)NC(=O)[C@H](Cc3ccc(-c4ccccc4)cc3)NC(=O)[C@H](C(C)C)NC2=O)c1 [Compound 1420] ({CH2CO}-[4Pal][Phe(4-COOH)]D[Phe(3-Me)]V[Bip]V[NMeA][dL][Dab]LVTCA-NH2; thioether N-14)
0.04 | CC(C)C[C@@H]1NC(=O)[C@H](CCN)NC(=O)[C@@H](CC(C)C)NC(=O)[C@H](C)N(C)C(=O)[C@H](CCCNC(=N)N)NC(=O)[C@H](Cc2ccc(-c3ccccc3)cc2)NC(=O)[C@H](C(C)C)NC(=O)[C@H](Cc2cccc(Cl)c2)NC(=O)[C@H](CC(=O)O)NC(=O)[C@H](Cc2ccc(OCC(=O)O)cc2)NC(=O)[C@H](CN)NC(=O)CSC[C@@H](C(=O)N[C@@H](C)C(N)=O)NC(=O)[C@H]([C@@H](C)O)NC(=O)[C@H](C(C)C)NC1=O [Compound 1458] ({CH2CO}-[Dap]Y(Carboxymethyl)D[Phe(3-Cl)]V[Bip]R[NMeA][dL][Dab]LVTCA-NH2; thioether N-14)
0.02 | C#CC[C@H](NC(=O)[C@@H](C)NC(=O)[C@@H]1CSCC(=O)N[C@@H](Cc2cnc[nH]2)C(=O)N[C@@H](Cc2ccc(OCC(=O)O)cc2)C(=O)N[C@@H](CC(=O)O)C(=O)N[C@@H](Cc2c[nH]c3ccccc23)C(=O)N[C@@H](C(C)C)C(=O)N[C@@H](Cc2ccc(-c3ccccc3)cc2)C(=O)N[C@@H](C(C)CC)C(=O)N(C)[C@@H](C)C(=O)N[C@H](CC(C)C)C(=O)N[C@@H](CCN)C(=O)N[C@@H](CC2CCCCC2)C(=O)N[C@@H](C(C)(C)O)C(=O)N[C@@H](CO)C(=O)N1)C(=O)O (stereo partly drawn) [Compound 2239] ({CH2CO}-HY(Carboxymethyl)DWV[Bip][Ile(3ξ)][NMeA][dL][Dab][Cha][Val(3-OH)]SC[dA][Pra]-OH; thioether N-14)
